Test results as given in US12636270B2, “Levothyroxine liquid formulations” (Fresenius Kabi USA, LLC, priority 2016, dated 2026).
Like-named read-outs stand apart in the source and are kept apart here.

Details: 20 mcg/mL, tromethamine 10 mg/mL, 5.4 mg/mL sodium chloride in water
Description: Separate samples containing 20 mcg/mL levothyroxine sodium, 10 mg/mL tromethamine, 5.4 mg/mL sodium chloride, and sodium iodide at a concentration of 280 mcg/mL, 140 mcg/mL, or 6 mcg/mL in water were adjusted to various pH levels. 5 mL of each sample was filled into 10 cc flint molded vials, and the vials were stoppered with 20 mm stoppers under nitrogen.
The samples also were stored at temperatures of 25° C. or 40° C. for 2M or 4M prior to analysis by HPLC.
The HPLC conditions were as follows: • Column: Phenomenex Kinetex 2.6 μm C18, 4.6×150 mm HPLC column • Mobile Phase A: 0.05 M Sulfamic Acid, pH 2.0 • Mobile Phase B: Acetonitrile • Diluent: 10% Mobile Phase A in Methanol: Acetonitrile: Mobile Phase A (1000 mL: 300 mL: 700 mL) • Column temperature: 27° C. • Flow rate: 1.2 mL/min • Injection volume: 50 μL • Autosampler temperature: 25° C. • Detection: UV at 225 nm • Separation mode: Gradient Gradient Program: […]

[1] = 25° C., 2 M, NaI 6 mcg/mL, pH 10.5
[2] = 25° C., 2 M, NaI 140 mcg/mL, pH 9.5
[3] = 25° C., 2 M, NaI 140 mcg/mL, pH 10
[4] = 25° C., 2 M, NaI 140 mcg/mL, pH 10.5
[5] = 25° C., 2 M, NaI 280 mcg/mL, pH 9.5
[6] = 25° C., 2 M, NaI 280 mcg/mL, pH 10
[7] = 25° C., 2 M, NaI 280 mcg/mL, pH 10.5
[8] = 25° C., 4 M, NaI 6 mcg/mL, pH 10.5
[9] = 25° C., 4 M, NaI 140 mcg/mL, pH 9.5
[10] = 25° C., 4 M, NaI 140 mcg/mL, pH 10
[11] = 25° C., 4 M, NaI 140 mcg/mL, pH 10.5
[12] = 25° C., 4 M, NaI 280 mcg/mL, pH 9.5
[13] = 25° C., 4 M, NaI 280 mcg/mL, pH 10
[14] = 25° C., 4 M, NaI 280 mcg/mL, pH 10.5
[15] = 40° C., 2 M, NaI 6 mcg/mL, pH 10.5
[16] = 40° C., 2 M, NaI 140 mcg/mL, pH 9.5
[17] = 40° C., 2 M, NaI 140 mcg/mL, pH 10
[18] = 40° C., 2 M, NaI 140 mcg/mL, pH 10.5
[19] = 40° C., 2 M, NaI 280 mcg/mL, pH 9.5
[20] = 40° C., 2 M, NaI 280 mcg/mL, pH 10
[21] = 40° C., 2 M, NaI 280 mcg/mL, pH 10.5
[22] = 40° C., 4 M, NaI 6 mcg/mL, pH 10.5
[23] = 40° C., 4 M, NaI 140 mcg/mL, pH 9.5
[24] = 40° C., 4 M, NaI 140 mcg/mL, pH 10
[25] = 40° C., 4 M, NaI 140 mcg/mL, pH 10.5
[26] = 40° C., 4 M, NaI 280 mcg/mL, pH 9.5
[27] = 40° C., 4 M, NaI 280 mcg/mL, pH 10
[28] = 40° C., 4 M, NaI 280 mcg/mL, pH 10.5

SMILES: N[C@@H](Cc1cc(I)c(Oc2cc(I)c(O)c(I)c2)c(I)c1)C(=O)[O-].[Na+] [Levothyroxine Na, 4-(4-hydroxy-3,5-diiodophenoxy)-3,5-diiodo-L-phenylalanine sodium]
- % AOII [1]: 0.46%
- % total impurities [1]: 1.85%
- % AOII [2]: 0.09%
- % Liothyronine [2]: 0.29%
- % total impurities [2]: 0.76%
- % AOII [3]: 0.10%
- % total impurities [3]: 0.77%
- % AOII [4]: 0.12%
- % Liothyronine [4]: 0.24%
- % total impurities [4]: 0.88%
- % AOII [5]: 0.11%
- % total impurities [5]: 0.81%
- % AOII [6]: 0.12%
- % Liothyronine [6]: 0.24%
- % total impurities [6]: 0.8%
- % AOII [7]: 0.11%
- % Liothyronine [7]: 0.23%
- % total impurities [7]: 0.85%
- % AOII [8]: 1.21%
- % total impurities [8]: 2.81%
- % AOII [9]: 0.18%
- % Liothyronine [9]: 0.35%
- % total impurities [9]: 1.00%
- % AOII [10]: 0.17%
- % total impurities [10]: 0.93%
- % AOII [11]: 0.17%
- % total impurities [11]: 0.94%
- % AOII [12]: 2.14%
- % Liothyronine [12]: 0.35%
- % total impurities [12]: 3.26%
- % AOII [13]: 0.17%
- % total impurities [13]: 0.93%
- % AOII [14]: 0.11%
- % total impurities [14]: 1.04%
- % AOII [15]: 0.91%
- % Liothyronine [15]: 0.43%
- % total impurities [15]: 2.5%
- % AOII [16]: 0.14%
- % Liothyronine [16]: 0.88%
- % total impurities [16]: 1.42%
- % AOII [17]: 0.14%
- % Liothyronine [17]: 0.55%
- % total impurities [17]: 1.18%
- % AOII [18]: 0.15%
- % Liothyronine [18]: 0.41%
- % total impurities [18]: 1.09%
- % AOII [19]: 0.13%
- % Liothyronine [19]: 0.9%
- % total impurities [19]: 1.56%
- % AOII [20]: 0.13%
- % Liothyronine [20]: 0.55%
- % total impurities [20]: 1.2%
- % AOII [21]: 0.17%
- % Liothyronine [21]: 0.39%
- % total impurities [21]: 1.07%
- % AOII [22]: 1.45%
- % Liothyronine [22]: 0.6%
- % total impurities [22]: 3.51%
- % AOII [23]: 0.72%
- % Liothyronine [23]: 1.3%
- % total impurities [23]: 2.84%
- % AOII [24]: 0.92%
- % Liothyronine [24]: 0.86%
- % total impurities [24]: 2.73%
- % AOII [25]: 0.69%
- % Liothyronine [25]: 0.59%
- % total impurities [25]: 2.14%
- % AOII [26]: 0.52%
- % Liothyronine [26]: 1.23%
- % total impurities [26]: 2.76%
- % AOII [27]: 1.38%
- % Liothyronine [27]: 0.84%
- % total impurities [27]: 3.23%
- % AOII [28]: 1.07%
- % Liothyronine [28]: 0.58%
- % total impurities [28]: 2.72%
